# Tests used:
# Format in all cases: in vivo
# [1] = test system: resistant caterpillars of the diamondback moth (Plutella xylostella); test: Plutella Test (resistant), cabbage leaf dip
# Description: (§1) The expected action for a given combination of two active compounds can be calculated as follows, using the formula of S. R. Colby, Weeds 15 (1967), 20-22: • If • X is the kill rate, expressed as % of the untreated control, when employing active compound A at an application rate of m g/ha or in a concentration of m ppm, • Y is the kill rate, expressed as % of the untreated control, when employing active compound B at an application rate of n g/ha or in a concentration of n ppm and • E is the kill rate, expressed as % of the untreated control, when employing active compounds A and B at application rates of m and n g/ha or in a concentration of m and n ppm, • then [formula]
# (§2) If the actual insecticidal kill rate exceeds the calculated value, the action of the combination is superadditive, i.e. a synergistic effect is present. In this case, the actually observed kill rate must exceed the value calculated using the above formula for the expected kill rate (E).
# Plutella Test (Resistant)
# To produce a suitable preparation of active compound, 1 part by weight of active compound is mixed with the stated amounts of solvent and emulsifier, and the concentrate is diluted with emulsifier-containing water to the desired concentration.
# Cabbage leaves (Brassica oleracea) are treated by being dipped into the preparation of active compound of the desired concentration and are populated with resistant caterpillars of the diamondback moth (Plutella xylostella) while the leaves are still moist.
# (§3) After the desired period of time, the kill in % is determined. 100% means that all caterpillars have been killed; 0% means that none of the caterpillars have been killed. The kill rates determined are calculated using Colby's formula.
# [2] = test system: normally sensitive caterpillars of the diamondback moth (Plutella xylostella); test: Plutella Test (normally sensitive), cabbage leaf dip
# Description: as §1, §2
# Plutella Test (Normally Sensitive)
# To produce a suitable preparation of active compound, 1 part by weight of active compound is mixed with the stated amounts of solvent and emulsifier, and the concentrate is diluted with emulsifier-containing water to the desired concentration. […]
# After the desired period of time, the kill in % is determined. […] The kill rates determined are calculated using Colby's formula.
# [3] = test system: caterpillars of the army worm (Spodoptera frugiperda); test: Spodoptera frugiperda Test, cabbage leaf dip
# Description: as §1, §2
# Spodoptera frugiperda Test
# To produce a suitable preparation of active compound, 1 part by weight of active compound is mixed with the stated amounts of solvent and emulsifier, and the concentrate is diluted with emulsifier-containing water to the desired concentration. Cabbage leaves (Brassica oleracea) are treated by being dipped into the preparation of active compound of the desired concentration and are populated with caterpillars of the army worm (Spodoptera frugiperda) while the leaves are still moist.
# as §3
compound,measurement,setting,value
Cc1cc(C)c(C2=C(OC(=O)CC(C)(C)C)C3(CCCC3)OC2=O)c(C)c1 [Ex. I-b-1],Kill rate in % after 7 d,[1]; 100 ppm,35%
same,Kill rate in % after 7 d,[1]; 500 ppm,40%
same,Kill rate in % after 3 d,[2]; 100 ppm,40%
same,Kill rate in % after 7 d,[3]; 100 ppm,0%
"N#Cc1nn(-c2c(Cl)cc(C(F)(F)F)cc2Cl)c(N)c1[S+]([O-])C(F)(F)F (stereo not drawn) [Fipronil, fipronil]",Kill rate in % after 7 d,[1]; 0.032 ppm,40%
same,Kill rate in % after 7 d,[3]; 0.8 ppm,20%
"COC(=O)N(C(=O)N1COC2(C(=O)OC)Cc3cc(Cl)ccc3C2=N1)c1ccc(OC(F)(F)F)cc1 (stereo not drawn) [Indoxacarb, indoxacarb]",Kill rate in % after 7 d,[1]; 0.16 ppm,90%
same,Kill rate in % after 3 d,[2]; 0.16 ppm,15%
Emamectin-benzoate,Kill rate in % after 7 d,[3]; 0.16 ppm,55%

# Source: US6919090B2, “Active substance combinations with insecticidal and acaricidal properties” (priority 2000, dated 2005)
